Assay results as given in PMC11274883, “Anticancer Effect of Pt^[sequence], Pt^II5MESS, Pt^II56MESS and Their Platinum(IV)-Dihydroxy Derivatives against Triple-Negative Breast Cancer and Cisplatin-Resistant Colorectal Cancer” (Cancers, 2024).

Columns and labels:
Format in all cases: cell-based
[1] = system: HT29 spheroids; assay: 3D bioprinted spheroid cytotoxicity (WST-1); conditions: 72 h, mean ± SEM
Text: (§1) To evaluate the cytotoxic effect of platinum(II) and (IV) complexes in 3D cell culture, MDA−MB−231 or HT29 cells were used to bioprint networks or spheroids with the non-contact drop-on-demand 3D RASTRUM bioprinter (Inventia Life Science, Alexandria, NSW, Australia). The 3D cultures use two constituents: bioink and activator. Cell pellets (2 × 10^6 cells) were resuspended in an activator reagent which forms an instant gel after its addition to the bioink by the bioprinter. The 3D large plug cell model with polyethylene glycol bioinks formulated to mimic the properties of in vivo tissue were chosen as follows. Matrix Px02.31 (activator F177 and bioink F242 with RGD: Fibronectin) was used for MDA−MB−231 3D embedded networks, Px02.00 (activator F177 and bioink F119 without RGD additives, Table S1) was used for MDA−MB−231 spheroids and matrix #Px02.09 (activator F177 and bioink F236 with adhesion peptides including, RGD: Fibronectin, and GFOGER: collagen type I to recapitulate rich in vivo tissue extracellular environments) was used for HT29 spheroids (Inventia Life Science) (Table S1). Each cell line was printed at 10,000 cells/well and loaded with the bioink fluids into the selected printer cartridge. After the automated priming of all fluids into the printer nozzles, each cell line was individually printed on tissue culture plates (Nunc^TM MicroWell^TM 96-Well, Nunclon Delta-Treated, Flat-Bottom Microplate, ThermoFisher #167008), with RASTRUM creating the 3D Large Plug across the 96-well plate. Following completion of the print run, 200 μL DMEM culture medium was added to each well using multichannel pipettes. The plate was then incubated for 7 days (humidified incubator with 5% CO2 at 37 °C) for compact and homogenous spheroid formation before the cytotoxicity assay. When the spheroids developed, post-7-day incubation, media was removed and replaced with 100 µL DMEM. […] Cytotoxicity was then assessed using the WST-1 assay as previously described in Section 2.3.

[2] = system: MDA−MB−231 spheroids; assay: 3D bioprinted spheroid cytotoxicity (WST-1); conditions: 72 h, mean ± SEM
Text: as §1

[3] = system: A2780; assay: WST-1 cytotoxicity, 72 h
Protocol: Cells were seeded in 96-well flat-bottom culture plates at a concentration of 1000 cells per well. […] After 72 h, the medium was removed and replaced with new medium. The cell viability reagent WST-1 (10 µL, Roche Diagnostics, Indianapolis, IN, USA) was added to each well. After an hour, the absorbance was measured at 450 nm using a versatile microplate reader (Bio-strategy, Campbellfield, VIC, Australia). Three separate experiments were performed, each with n = 3 replicates. GraphPad prism 10 was used to calculate apparent IC50 values using the nonlinear regression model Y = Bottom + (Top-Bottom)/(1 + 10^(X-LogIC50)) where Top and bottom are plateaus in the y-axis (% survival).

[4] = system: MDA−MB−231 cells; assay: Western blot protein expression; conditions: MDA−MB−231, IC50, 72 h
Protocol: (§2) Protein extraction was then performed on ice. Media were collected in Eppendorf tubes, and centrifuged at 500× g for 5 min at 4 °C. Meanwhile, 200 µL of lysis RIPA buffer, made up of 150 mM NaCl, 50 mM Tris-HCl, pH 8.0, 0.1% Triton X-100, 0.5% sodium deoxycholate, 0.1% SDS and 1 mM sodium orthovanadate, was added to each well, the cells were scrapped into the buffer, and added to the media-derived pellets. The tubes were placed on the shaker for 10 min at 4 °C. Then, cell extracts were centrifuged at 12,000× g for 15 min at 4 °C, and the supernatants (containing the proteins) were collected. The Bio-Rad-DC protein assay (Bio-Rad, Hercules, CA, USA) was used to assess protein content. Laemmli protein sample buffer (4×) with β-mercaptoethanol (9%) was used to prepare a final protein concentration of 20 µg. The samples were then heated at 100 °C for 5 min. A final volume of 30 µL of each sample was added per well and subjected to SDS-PAGE using Bolt 4–12% Bis-Tris gel (Thermo Fisher, Eugene, OR, USA) at 80 V for 30 min and then 120 V for 60 min with PageRuler™ Prestained Protein or SeeBlue Prestained Protein Ladder (Thermo Fisher, Eugene, OR, USA). Proteins were subsequently transferred to a 0.2 µm PVDF membrane (Amersham, Cytiya) using a semi-dry blot transfer. The membrane was then blocked in 5% BSA in TBST, for 1 h and probed overnight at 4 °C with primary antibodies against several cell proliferation, apoptotic, anti-apoptotic, microtubule and autophagic protein markers listed in Table S7 as per the manufacturer’s protocol. The primary antibody was then removed, washed three times for 10 min with TBST and then membranes were treated with either mouse or rabbit HRP-coupled secondary antibodies (1/3000) for 1 h and 30 min. Protein band detection was then performed using the chemiluminescence ECL kit (Thermo Fisher, Eugene, OR, USA). Blot images were obtained using the Odyssey® FC imaging system (LI-COR Biosciences, Lincoln, NE, USA) and band intensities were quantified relatively to glyceraldehyde-3-phosphate dehydrogenase (GAPDH) and then normalised each replicate gel to its corresponding no treatment control using the ImageJ v1.53t software (National Institutes of Health, Bethesda, MD, USA). Each marker results from the same experiment or parallel experiment where the gels were processed in parallel. Three independent experiments per marker were conducted.

[5] = system: HT29 cells; assay: Western blot protein expression; conditions: HT29, IC50, 72 h
Protocol: as §2

[6] = representative blot Figure S30G
[7] = representative blot Figure S30H

For Cc1cc2cccnc2c2ncccc12.N[C@H]1CCCC[C@@H]1N.O=[N+]([O-])[O-].O=[N+]([O-])[O-].[OH][Pt+2][OH] [Pt^IV5MESS(OH)2, [Pt(5-methyl-1,10-phenanthroline)(1S,2S-diaminocyclohexane)(dihydroxy)](NO3)2], the IC50 [1] was 8.46 ± 1.23 µM, the IC50 [2] was 7.99 ± 1.3 µM and the “potency relative to cisplatin” value ([3]; A2780, 72 h) was 10 fold. The IC50 ([3]; A2780, 72 h, mean ± SEM) was 2140 ± 1380 nM, the “Selective cytotoxicity index (SCI)” value ([3]; IC50 MCF10A/IC50 A2780) was 5.71 and the “β-actin/GAPDH normalized to control (1)” value ([4]; representative blot Figure S24A) was 0.8788. For the same compound, the “β-tubulin/GAPDH normalized to control (1)” value ([4]; representative blot Figure S24B) was 0.3985, the “α-tubulin/GAPDH normalized to control (1)” value ([4]; representative blot Figure S24C) was 1.177 and the “p-AKT/AKT/GAPDH normalized to control (1)” value ([4]; representative blot Figure S25A) was 0.9345. For the same compound, the “p-ERK/ERK/GAPDH normalized to control (1)” value ([4]; representative blot Figure S25B) was 0.144, the “p53/GAPDH normalized to control (1)” value ([4]; representative blot Figure S25C) was 1.183 and the “p21/GAPDH normalized to control (1)” value ([4]; representative blot Figure S25D) was 1.042. The “Bax/GAPDH normalized to control (1)” value ([4]; representative blot Figure S26A) was 1.846, the “Bcl2/GAPDH normalized to control (1)” value ([4]; representative blot Figure S26B) was 0.7914 and the “Cytochrome C/GAPDH normalized to control (1)” value ([4]; representative blot Figure S26C) was 2.795. The “Procaspase 8/GAPDH normalized to control (1)” value ([4]; representative blot Figure S26D) was 0.3546, the “Cleaved BID/GAPDH normalized to control (1)” value ([4]; representative blot Figure S26E) was 5.948 and the “Procaspase 9/GAPDH normalized to control (1)” value ([4]; representative blot Figure S26F) was 0.3022. For the same compound, the “Procaspase 3/GAPDH normalized to control (1)” value ([4]; representative blot Figure S26G) was 0.7167, the “PARP-1/GAPDH normalized to control (1)” value ([4]; representative blot Figure S26H) was 0.5187 and the “Beclin1/GAPDH normalized to control (1)” value ([4]; representative blot Figure S27A) was 0.9374. The “ATG5/GAPDH normalized to control (1)” value ([4]; representative blot Figure S27B) was 1.065, the “ATG16L1/GAPDH normalized to control (1)” value ([4]; representative blot Figure S27C) was 1.203 and the “ATG9A/GAPDH normalized to control (1)” value ([4]; representative blot Figure S27D) was 0.3984. For the same compound, the “ATG4B/GAPDH normalized to control (1)” value ([4]; representative blot Figure S27E) was 2.797, the “LC3B/GAPDH normalized to control (1)” value ([4]; representative blot Figure S27F) was 0.6059 and the “β-actin/GAPDH normalized to control (1)” value ([5]; representative blot Figure S28A) was 0.2948. The “β-tubulin/GAPDH normalized to control (1)” value ([5]; representative blot Figure S28B) was 0.1611, the “α-tubulin/GAPDH normalized to control (1)” value ([5]; representative blot Figure S28C) was 0.1518 and the “p-AKT/AKT/GAPDH normalized to control (1)” value ([5]; representative blot Figure S29A) was 0.4249. The “p-ERK/ERK/GAPDH normalized to control (1)” value ([5]; representative blot Figure S29B) was 1.297, the “p53/GAPDH normalized to control (1)” value ([5]; representative blot Figure S29C) was 3.349 and the “p21/GAPDH normalized to control (1)” value ([5]; representative blot Figure S29D) was 2.658. For the same compound, the “Bax/GAPDH normalized to control (1)” value ([5]; representative blot Figure S30A) was 3.075, the “Bcl2/GAPDH normalized to control (1)” value ([5]; representative blot Figure S30B) was 0.4381 and the “Cyt C/GAPDH normalized to control (1)” value ([5]; representative blot Figure S30C) was 6.184. For the same compound, the “Procaspase 8/GAPDH normalized to control (1)” value ([5]; representative blot Figure S30D) was 0.4372, the “Cleaved BID/GAPDH normalized to control (1)” value ([5]; representative blot Figure S30E) was 2.712 and the “Procaspase 9/GAPDH normalized to control (1)” value ([5]; representative blot Figure S30F) was 0.2026. For the same compound, the “Cleaved caspase 3/GAPDH normalized to control (1)” value [5, 6] was 7.887, the “Procaspase 3/GAPDH normalized to control (1)” value [5, 6] was 1.238 and the “Cleaved PARP-1/GAPDH normalized to control (1)” value [5, 7] was 5.761. For the same compound, the “PARP-1/GAPDH normalized to control (1)” value [5, 7] was 0.6207, the “Beclin1/GAPDH normalized to control (1)” value ([5]; representative blot Figure S31A) was 6.943 and the “ATG5/GAPDH normalized to control (1)” value ([5]; representative blot Figure S31B) was 0.2364. For the same compound, the “ATG16L1/GAPDH normalized to control (1)” value ([5]; representative blot Figure S31C) was 2.006, the “ATG9A/GAPDH normalized to control (1)” value ([5]; representative blot Figure S31D) was 2.334 and the “ATG4B/GAPDH normalized to control (1)” value ([5]; representative blot Figure S31E) was 0.5922. For the same compound, the “LC3B/GAPDH normalized to control (1)” value ([5]; representative blot Figure S31F) was 1.713.
